Test results taken from the supplement of paper PMC10307832.

How the values were obtained:
Test in all cases: relative viability (nuclei count vs DMSO), 5 days (fraction); higher = more cells survive
BAY61-3606 + Lapatinib = compound: COC1=C(C=C(C=C1)C2=CC3=NC=CN3C(=N2)NC4=C(C=CC=N4)C(=O)N)OC [BAY61-3606] + CS(=O)(=O)CCNCc1ccc(-c2ccc3ncnc(Nc4ccc(OCc5cccc(F)c5)c(Cl)c4)c3c2)o1 [Lapatinib] (partner 2 µM)
Outline: (§1)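 For relative viability, nuclei counts in treated wells were divided by those in vehicle wells. Lung cancer cell lines had been pin-tool dosed in 1536-well plates the day after seeding and cultured for 5 days, then fixed and stained in one step (final 0.05% Triton X-100, 1% formaldehyde, 1 ug/ml Hoechst) and imaged at 4×. Doses were one drug alone or a fixed anchor-drug dose plus five library-drug doses (not always all listed) in √10 steps, and values are duplicate-plate medians.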

Doxorubicin + Alpelisib = compound: COc1cccc2c1C(=O)c1c(O)c3c(c(O)c1C2=O)C[C@@](O)(C(=O)CO)C[C@@H]3O[C@H]1C[C@H](N)[C@H](O)[C@H](C)O1 [Doxorubicin] + Cc1nc(NC(=O)N2CCC[C@H]2C(N)=O)sc1-c1ccnc(C(C)(C)C(F)(F)F)c1 [Alpelisib] (partner 2 µM)
Outline: as §1

Doxorubicin + Olaparib = compound: COc1cccc2c1C(=O)c1c(O)c3c(c(O)c1C2=O)C[C@@](O)(C(=O)CO)C[C@@H]3O[C@H]1C[C@H](N)[C@H](O)[C@H](C)O1 [Doxorubicin] + O=C(c1cc(Cc2n[nH]c(=O)c3ccccc23)ccc1F)N1CCN(C(=O)C2CC2)CC1 [Olaparib] (partner 8 µM)
Outline: as §1

Doxorubicin + Tozasertib = compound: COc1cccc2c1C(=O)c1c(O)c3c(c(O)c1C2=O)C[C@@](O)(C(=O)CO)C[C@@H]3O[C@H]1C[C@H](N)[C@H](O)[C@H](C)O1 [Doxorubicin] + Cc1cc(Nc2cc(N3CCN(C)CC3)nc(Sc3ccc(NC(=O)C4CC4)cc3)n2)n[nH]1 [Tozasertib] (partner 0.1 µM)
Outline: as §1

Cell Line | relative viability (BAY61-3606 + Lapatinib; first compound 0.02 µM) | relative viability (BAY61-3606 + Lapatinib; first compound 0.06325 µM) | relative viability (BAY61-3606 + Lapatinib; first compound 0.2 µM) | relative viability (BAY61-3606 + Lapatinib; first compound 0.6325 µM) | relative viability (BAY61-3606 + Lapatinib; first compound 2 µM) | relative viability (Doxorubicin + Alpelisib; first compound 0.001 µM) | relative viability (Doxorubicin + Alpelisib; first compound 0.003162 µM) | relative viability (Doxorubicin + Alpelisib; first compound 0.01 µM) | relative viability (Doxorubicin + Alpelisib; first compound 0.03162 µM) | relative viability (Doxorubicin + Alpelisib; first compound 0.1 µM) | relative viability (Doxorubicin + Olaparib; first compound 0.001 µM) | relative viability (Doxorubicin + Olaparib; first compound 0.003162 µM) | relative viability (Doxorubicin + Olaparib; first compound 0.01 µM) | relative viability (Doxorubicin + Olaparib; first compound 0.03162 µM) | relative viability (Doxorubicin + Olaparib; first compound 0.1 µM) | relative viability (Doxorubicin + Tozasertib; first compound 0.001 µM) | relative viability (Doxorubicin + Tozasertib; first compound 0.003162 µM) | relative viability (Doxorubicin + Tozasertib; first compound 0.01 µM) | relative viability (Doxorubicin + Tozasertib; first compound 0.03162 µM) | relative viability (Doxorubicin + Tozasertib; first compound 0.1 µM)
201T | 1.08 | 1.01 | 1.11 | 1.03 | 0.996 | 1.02 | 0.969 | 0.985 | 0.969 | 1.02 | 0.849 | 0.825 | 0.837 | 0.856 | 0.831 | 0.924 | 0.955 | 0.949 | 0.927 | 0.924
A549 | 1.09 | 1.15 | 1.05 | 0.953 | 0.902 | 0.799 | 0.676 | 0.48 | 0.132 | 0.0649 | – | 0.437 | 0.375 | 0.275 | 0.264 | – | – | – | – | –
A-427 | 1.07 | 1.1 | 1.05 | 1.04 | 1.01 | 1.11 | 1.09 | 1.09 | 1.09 | 1.15 | 0.764 | 0.672 | 0.718 | 0.373 | 0.285 | 0.241 | 0.215 | 0.183 | 0.238 | 0.213
ABC-1 | 1.34 | 1.03 | 1.23 | 1.05 | 0.98 | 1.04 | 0.922 | 1.02 | 0.504 | 0.361 | 0.946 | 0.761 | 0.723 | 0.525 | 0.306 | 0.223 | 0.207 | 0.153 | 0.184 | 0.181
BEN | 0.938 | 0.694 | 0.679 | 0.757 | 0.787 | 1.09 | 1.04 | 0.913 | 0.656 | 0.886 | 1.07 | 1.09 | 0.897 | 0.938 | 1.13 | 0.587 | 0.564 | 0.576 | 0.469 | 0.54
CAL-12T | 0.805 | 0.596 | 0.613 | 0.768 | 0.637 | 1.23 | 1.41 | 0.587 | 0.26 | 0.142 | 0.7 | 0.668 | 0.559 | 0.212 | 0.191 | 0.339 | 0.283 | 0.257 | 0.207 | 0.136
COR-L23 | 0.872 | 1.08 | 0.826 | 1.04 | 0.834 | 0.826 | 0.806 | 0.866 | 0.428 | 0.128 | 0.361 | 0.38 | 0.29 | 0.147 | 0.131 | 0.227 | 0.186 | 0.201 | 0.123 | 0.122
COR-L 105 | 0.355 | 0.378 | 0.418 | 0.417 | 0.351 | 0.967 | 1.13 | 0.928 | 0.551 | 0.312 | 0.748 | 0.698 | 0.668 | 0.497 | 0.468 | 0.424 | 0.368 | 0.443 | 0.334 | 0.344
Calu-6 | 1.09 | 1.23 | 1.09 | 1.02 | 0.923 | 1.09 | 1.01 | 0.866 | 0.529 | 0.295 | 0.554 | 0.536 | 0.457 | 0.298 | 0.197 | – | – | – | – | –
ChaGo-K-1 | – | – | – | – | – | – | – | – | – | – | 0.437 | 0.408 | 0.352 | 0.486 | 0.442 | 0.229 | 0.199 | 0.222 | 0.208 | 0.226
EBC-1 | 0.218 | 0.228 | 0.181 | 0.243 | 0.244 | 0.835 | 0.921 | 0.823 | 0.61 | 0.405 | 0.682 | 0.735 | 0.73 | 0.54 | 0.284 | – | – | – | – | –
EKVX | 0.365 | 0.184 | 0.214 | 0.198 | 0.193 | 0.968 | 0.971 | 0.797 | 0.803 | 0.861 | 0.862 | 0.882 | 0.767 | 0.849 | 0.734 | 0.35 | 0.434 | 0.383 | 0.415 | 0.342
EMC-BAC-2 | 0.882 | 0.969 | 0.861 | 1.11 | 0.921 | 0.799 | 0.88 | 0.679 | 0.734 | 0.717 | 0.487 | 0.367 | 0.355 | 0.317 | 0.302 | 0.321 | 0.26 | 0.308 | 0.25 | 0.216
EPLC-272H | 1.18 | 0.809 | 0.876 | 0.878 | 0.808 | 0.898 | 1.04 | 0.913 | 0.902 | 1.02 | 0.767 | 1.01 | 0.832 | 0.453 | 0.261 | 0.423 | 0.401 | 0.238 | 0.26 | 0.506
H3255 | 0.257 | 0.203 | 0.274 | 0.249 | 0.229 | 0.698 | 0.656 | 0.562 | 0.58 | 0.404 | 0.541 | 0.553 | 0.541 | 0.48 | 0.424 | 0.59 | 0.759 | 0.573 | 0.604 | 0.539
HARA | 0.798 | 0.643 | 0.721 | 0.862 | 0.735 | 0.816 | 0.845 | 0.76 | 0.782 | 0.812 | 1.05 | 0.8 | 0.722 | 0.718 | 0.759 | 0.112 | 0.126 | 0.241 | 0.128 | 0.145
